{"source": "paper PMC3940197", "about": "“Identification of the first small-molecule ligand of the neuronal receptor sortilin and structure determination of the receptor–ligand complex” (Acta Crystallographica Section D: Biological Crystallography, 2014)", "key": {"NTSR1": {"biological_target": "NTSR1 (Homo sapiens, UniProt P30989)", "sequence (P30989 whole entry, species assumed)": "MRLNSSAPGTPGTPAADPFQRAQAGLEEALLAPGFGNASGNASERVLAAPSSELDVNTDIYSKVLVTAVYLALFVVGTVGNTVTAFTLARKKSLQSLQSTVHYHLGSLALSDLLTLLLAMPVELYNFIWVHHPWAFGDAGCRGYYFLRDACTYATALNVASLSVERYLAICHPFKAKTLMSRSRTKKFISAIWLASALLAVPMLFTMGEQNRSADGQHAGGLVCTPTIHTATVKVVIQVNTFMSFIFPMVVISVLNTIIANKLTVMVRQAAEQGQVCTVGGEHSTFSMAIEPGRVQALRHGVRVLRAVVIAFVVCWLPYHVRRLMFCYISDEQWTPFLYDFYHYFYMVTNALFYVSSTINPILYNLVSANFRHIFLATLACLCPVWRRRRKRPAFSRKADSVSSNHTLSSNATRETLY", "assay": "Competition of NTS binding to NTSR1", "conditions": "data not shown"}, "sortilin [1]": {"biological_target": "T1, sortilin (Homo sapiens, UniProt Q99523)", "T1 construct": "The extracellular Vps10p domain of sortilin was overexpressed in HEK293F cells and purified from the medium; made in house; host or cells: HEK293F", "T1 sequence (Q99523 78-755 limits assumed)": "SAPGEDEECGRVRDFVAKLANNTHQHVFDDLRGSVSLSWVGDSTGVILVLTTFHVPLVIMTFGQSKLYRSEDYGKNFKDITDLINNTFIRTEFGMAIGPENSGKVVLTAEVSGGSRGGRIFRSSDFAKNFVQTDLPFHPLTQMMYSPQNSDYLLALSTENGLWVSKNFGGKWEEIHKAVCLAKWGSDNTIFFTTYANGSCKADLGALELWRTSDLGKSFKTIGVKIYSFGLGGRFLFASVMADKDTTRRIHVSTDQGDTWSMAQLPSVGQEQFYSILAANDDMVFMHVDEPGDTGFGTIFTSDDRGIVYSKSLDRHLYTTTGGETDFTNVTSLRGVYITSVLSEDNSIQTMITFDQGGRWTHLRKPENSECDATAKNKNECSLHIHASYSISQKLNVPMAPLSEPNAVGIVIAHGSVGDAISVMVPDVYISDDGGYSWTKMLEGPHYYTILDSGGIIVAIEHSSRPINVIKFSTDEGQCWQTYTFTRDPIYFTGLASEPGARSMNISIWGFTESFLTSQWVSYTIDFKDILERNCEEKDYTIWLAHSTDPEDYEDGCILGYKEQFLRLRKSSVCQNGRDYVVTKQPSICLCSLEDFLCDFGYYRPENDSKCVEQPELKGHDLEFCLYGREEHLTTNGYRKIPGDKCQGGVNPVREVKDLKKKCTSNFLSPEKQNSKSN", "assay": "3H-neurotensin-binding sortilin scintillation proximity assay (SPA)", "conditions": "for IC50: 150 nM sortilin, 5 nM 3H-neurotensin, averages of at least four determinations, read-out: IC50 (displacement of 3H-neurotensin binding to sortilin); for activity in SPA assay (in words): structure-activity relationship relative to hit 1a", "description": "The open reading frame of human sortilin including the endogenous signal peptide to residue 723 was amplified by PCR and cloned into the pCEP-pu vector with XbaI and XhoI. The primers were designed to include a C-terminal factor Xa site followed by a hexahistidine tag. HEK293F cells were transfected with 900 µg plasmid, applying 900 µl FreeStyle MAX reagent (Invitrogen) according to the manufacturer’s instructions, and were grown in 900 ml FreeStyle 293 medium (Invitrogen) in a 3 l Erlenmeyer flask for 7 d. The medium was harvested by centrifugation at 3700g for 15 min, filtered through a 0.40 µm filter and the pH was adjusted by supplementation with Tris–HCl pH 8.0 to a final concentration of 50 mM. A 5 ml Ni–NTA column (GE Healthcare) was equilibrated in buffer A (50 mM Tris–HCl pH 8.0, 150 mM NaCl) and the medium was recirculated over the column overnight. The column was washed with five column volumes of wash buffer (50 mM Tris–HCl pH 8.0, 150 mM NaCl, 10 mM imidazole) and sortilin was eluted with a ten-column-volume imidazole gradient (10–250 mM imidazole). Fractions containing sortilin were pooled and concentrated by […] (Vivaspin 20, 10 kDa cutoff, Sartorius). The sortilin was applied onto a Superdex 200 10/300 GL column (GE Healthcare) equilibrated in buffer A. Fractions containing sortilin were pooled, concentrated to a final concentration of 5 mg ml^−1, flash-frozen in liquid nitrogen and stored at −80°C.\nThe compound affinity was determined by measuring the displacement of ^3H-neurotensin binding to sortilin using a scintillation proximity assay (SPA). Experiments were performed in assay buffer (50 mM HEPES pH 7.4, 100 mM NaCl, 2.0 mM CaCl2, 0.1% BSA, 0.1% Tween-20) with a total volume of 40 µl. The compound was pre-incubated for 30 min at room temperature with 150 nM sortilin before 5 nM ^3H-neurotensin and Ni-chelate imaging beads (Perkin Elmer) were added. After 6 h, the plate was read on a ViewLux with 360 s exposure time. Unlabelled neurotensin and a DMSO blank were used as positive and negative controls, respectively. Dose-response evaluation of compounds was performed with ten concentrations of 1a–1h and AF40431 (covering concentrations between 2.5 nM and 50 µM). The half-maximal inhibitory concentration (IC50) values were calculated by nonlinear regression using the sigmoid concentration response (variable slope) in XLfit 4 (IDBS, UK). All values reported are the averages of at least four determinations."}, "sortilin [2]": {"biological_target": "T2, sortilin (Homo sapiens, UniProt Q99523)", "T2 construct": "The extracellular Vps10p domain of sortilin was overexpressed in HEK293F cells and purified from the medium; made in house; host or cells: HEK293F", "T2 sequence (Q99523 78-756)": "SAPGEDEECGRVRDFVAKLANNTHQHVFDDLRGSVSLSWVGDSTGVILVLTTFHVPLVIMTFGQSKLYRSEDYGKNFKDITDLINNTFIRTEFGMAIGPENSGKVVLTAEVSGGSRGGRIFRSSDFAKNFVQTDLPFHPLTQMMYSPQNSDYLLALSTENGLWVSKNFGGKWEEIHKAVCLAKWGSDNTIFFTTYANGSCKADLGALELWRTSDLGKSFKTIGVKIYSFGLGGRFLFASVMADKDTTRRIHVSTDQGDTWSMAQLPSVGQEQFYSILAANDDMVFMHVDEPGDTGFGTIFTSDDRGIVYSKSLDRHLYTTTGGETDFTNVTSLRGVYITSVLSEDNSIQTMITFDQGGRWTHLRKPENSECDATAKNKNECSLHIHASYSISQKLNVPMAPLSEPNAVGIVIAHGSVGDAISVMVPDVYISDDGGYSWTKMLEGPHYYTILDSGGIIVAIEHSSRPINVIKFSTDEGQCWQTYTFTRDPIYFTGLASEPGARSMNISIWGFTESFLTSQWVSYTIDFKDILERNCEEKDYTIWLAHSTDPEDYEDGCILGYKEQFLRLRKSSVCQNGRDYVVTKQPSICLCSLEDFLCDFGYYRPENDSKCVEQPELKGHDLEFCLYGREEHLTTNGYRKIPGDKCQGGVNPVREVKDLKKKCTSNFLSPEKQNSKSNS", "assay": "Isothermal titration calorimetry (ITC) of binding to sortilin", "conditions": "25°C, PBS pH 7.4, 4% DMSO, read-out: dissociation constant (Kd)", "description": "The open reading frame of human sortilin including the endogenous signal peptide to residue 723 was amplified by PCR and cloned into the pCEP-pu vector with XbaI and XhoI. The primers were designed to include a C-terminal factor Xa site followed by a hexahistidine tag. HEK293F cells were transfected with 900 µg plasmid, applying 900 µl FreeStyle MAX reagent (Invitrogen) according to the manufacturer’s instructions, and were grown in 900 ml FreeStyle 293 medium (Invitrogen) in a 3 l Erlenmeyer flask for 7 d. The medium was harvested by centrifugation at 3700g for 15 min, filtered through a 0.40 µm filter and the pH was adjusted by supplementation with Tris–HCl pH 8.0 to a final concentration of 50 mM. A 5 ml Ni–NTA column (GE Healthcare) was equilibrated in buffer A (50 mM Tris–HCl pH 8.0, 150 mM NaCl) and the medium was recirculated over the column overnight. […]\nThe binding of AF40431 to sortilin was measured by isothermal titration calorimetry (ITC). […] Heat evolving from dilution was measured by injecting the ligand into PBS supplemented with 4% DMSO. […] Finally, the binding stoichiometry (n), equilibrium dissociation constant (K d), molar enthalpy and entropy changes for the binding processes were determined by analyzing the titration data using Origin software (OriginLab, Northampton, Massachusetts, USA)."}, "proNGF (Homo sapiens)": {"biological_target": "proNGF (Homo sapiens) (UniProt P01138)", "sequence (P01138 122-241)": "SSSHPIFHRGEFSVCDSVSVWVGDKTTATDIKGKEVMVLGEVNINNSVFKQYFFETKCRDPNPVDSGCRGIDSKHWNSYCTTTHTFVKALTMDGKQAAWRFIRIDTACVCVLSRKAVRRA", "conditions": "cited from earlier work"}}}
{"compound": "Cc1cc(=O)oc2c(CN[C@@H](CC(C)C)C(=O)O)c(O)ccc12", "note": "[AF40431]", "values": [{"measurement": "IC50", "setting": "NTSR1", "value": "> 50", "unit": "µM"}, {"measurement": "IC50", "setting": "sortilin [1]", "value": "4.4 ± 0.7", "unit": "µM"}, {"measurement": "Kd", "setting": "sortilin [2]", "value": 0.7, "unit": "µM"}]}
{"compound": "Cc1cc(=O)oc2c(CNC(CC(C)C)C(=O)O)c(O)ccc12", "note": "(stereo not shown) [Compound 1a]", "values": [{"measurement": "IC50", "setting": "sortilin [1]", "value": 1.8, "unit": "µM"}]}
{"compound": "CCC(C)C(NCc1c(O)ccc2c(C)cc(=O)oc12)C(=O)O", "note": "(stereo not shown) [Compound 1b]", "values": [{"measurement": "IC50", "setting": "sortilin [1]", "value": "6.1 ± 2.7", "unit": "µM"}, {"measurement": "activity in SPA assay (in words)", "setting": "sortilin [1]", "value": "activity was retained"}]}
{"compound": "Cc1cc(=O)oc2c(CNC(CC(C)(C)C)C(=O)O)c(O)ccc12", "note": "(stereo not shown) [Compound 1c]", "values": [{"measurement": "IC50", "setting": "sortilin [1]", "value": "3.1 ± 1.1", "unit": "µM"}, {"measurement": "activity in SPA assay (in words)", "setting": "sortilin [1]", "value": "activity was retained"}]}
{"compound": "Cc1cc(=O)oc2c(CNC(C(=O)O)C3CCCCC3)c(O)ccc12", "note": "(stereo not shown) [Compound 1d]", "values": [{"measurement": "IC50", "setting": "sortilin [1]", "value": "1.7 ± 0.3", "unit": "µM"}, {"measurement": "activity in SPA assay (in words)", "setting": "sortilin [1]", "value": "activity was retained"}]}
{"compound": "Cc1cc(=O)oc2c(CNC(C(=O)O)C(C)C)c(O)ccc12", "note": "(stereo not shown) [Compound 1e]", "values": [{"measurement": "IC50", "setting": "sortilin [1]", "value": "> 50", "unit": "µM"}, {"measurement": "activity in SPA assay (in words)", "setting": "sortilin [1]", "value": "activity was ablated"}]}
{"compound": "Cc1cc(=O)oc2c(CNC(C)C(=O)O)c(O)ccc12", "note": "(stereo not shown) [Compound 1f]", "values": [{"measurement": "IC50", "setting": "sortilin [1]", "value": "> 50", "unit": "µM"}, {"measurement": "activity in SPA assay (in words)", "setting": "sortilin [1]", "value": "activity was ablated"}]}
{"compound": "Cc1cc(=O)oc2c(CNC(Cc3ccccc3)C(=O)O)c(O)ccc12", "note": "(stereo not shown) [Compound 1g]", "values": [{"measurement": "IC50", "setting": "sortilin [1]", "value": "> 50", "unit": "µM"}, {"measurement": "activity in SPA assay (in words)", "setting": "sortilin [1]", "value": "activity was ablated"}]}
{"compound": "Cc1cc(=O)oc2c(CN[C@H](CC(C)C)C(=O)O)c(O)ccc12", "note": "[Compound 1h]", "values": [{"measurement": "IC50", "setting": "sortilin [1]", "value": "> 50", "unit": "µM"}, {"measurement": "activity in SPA assay (in words)", "setting": "sortilin [1]", "value": "inactive"}]}
{"compound": "Sortilin (from UniProt Q99523)", "values": [{"measurement": "Kd", "setting": "proNGF (Homo sapiens)", "value": 0.00016, "unit": "µM"}]}
